Data on 14 molecules can be found in patent US20240024488A1, “COMPOUNDS AND USES THEREOF” (Foghorn Therapeutics Inc., priority 2020, published 2024).

The target of one experiment is T1, HiBit-BRM fusion protein (Homo sapiens, UniProt P51531).
T1 construct: expressed in transfected cells
Nature of the experiment: HiBiT-BRM cell-based degradation assay (Nano-Glo HiBiT Lytic Detection, 24 h). The conditions noted are these: HeLa cell line expressing HiBiT-BRM; for DC50: read-out: BRM HiBit Degradation IC50. Summed up: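 Percent BRM loss was derived from HiBiT luminescence relative to DMSO-treated cells and cells given 2 μM of a known BRM/BRG1 degrader. Treatment lasted 24 h in HiBiT-BRM HeLa cells, with a top final concentration of 30 μM.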

Experiment [1] deals with T2, HiBit-BRG1 fusion protein (Homo sapiens, UniProt P51532).
T2 construct: expressed in transfected cells
Nature of the experiment: HiBiT-BRG1 cell-based degradation assay (Nano-Glo HiBiT Lytic Detection, 24 h). Conditions: HeLa cell line expressing HiBit-BRG1 and LgBit; for Dmax: read-out: BRG1 HiBit Degradation Maximum (%); for DC50: read-out: BRMG1 HiBit Degradation IC50. A digest of the protocol:
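HeLa cells stably expressing HiBiT-BRG1 plus LgBit, 5000/well, treated 24 h, then lysed with Nano-Glo HiBiT lytic reagent and luminescence read. % degradation normalised between DMSO (high control) and 2 μM reference BRM/BRG1 degrader (low control).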

Some results are limits rather than exact numbers.

T1 sequence (P51531 whole entry, the tested form may be a part): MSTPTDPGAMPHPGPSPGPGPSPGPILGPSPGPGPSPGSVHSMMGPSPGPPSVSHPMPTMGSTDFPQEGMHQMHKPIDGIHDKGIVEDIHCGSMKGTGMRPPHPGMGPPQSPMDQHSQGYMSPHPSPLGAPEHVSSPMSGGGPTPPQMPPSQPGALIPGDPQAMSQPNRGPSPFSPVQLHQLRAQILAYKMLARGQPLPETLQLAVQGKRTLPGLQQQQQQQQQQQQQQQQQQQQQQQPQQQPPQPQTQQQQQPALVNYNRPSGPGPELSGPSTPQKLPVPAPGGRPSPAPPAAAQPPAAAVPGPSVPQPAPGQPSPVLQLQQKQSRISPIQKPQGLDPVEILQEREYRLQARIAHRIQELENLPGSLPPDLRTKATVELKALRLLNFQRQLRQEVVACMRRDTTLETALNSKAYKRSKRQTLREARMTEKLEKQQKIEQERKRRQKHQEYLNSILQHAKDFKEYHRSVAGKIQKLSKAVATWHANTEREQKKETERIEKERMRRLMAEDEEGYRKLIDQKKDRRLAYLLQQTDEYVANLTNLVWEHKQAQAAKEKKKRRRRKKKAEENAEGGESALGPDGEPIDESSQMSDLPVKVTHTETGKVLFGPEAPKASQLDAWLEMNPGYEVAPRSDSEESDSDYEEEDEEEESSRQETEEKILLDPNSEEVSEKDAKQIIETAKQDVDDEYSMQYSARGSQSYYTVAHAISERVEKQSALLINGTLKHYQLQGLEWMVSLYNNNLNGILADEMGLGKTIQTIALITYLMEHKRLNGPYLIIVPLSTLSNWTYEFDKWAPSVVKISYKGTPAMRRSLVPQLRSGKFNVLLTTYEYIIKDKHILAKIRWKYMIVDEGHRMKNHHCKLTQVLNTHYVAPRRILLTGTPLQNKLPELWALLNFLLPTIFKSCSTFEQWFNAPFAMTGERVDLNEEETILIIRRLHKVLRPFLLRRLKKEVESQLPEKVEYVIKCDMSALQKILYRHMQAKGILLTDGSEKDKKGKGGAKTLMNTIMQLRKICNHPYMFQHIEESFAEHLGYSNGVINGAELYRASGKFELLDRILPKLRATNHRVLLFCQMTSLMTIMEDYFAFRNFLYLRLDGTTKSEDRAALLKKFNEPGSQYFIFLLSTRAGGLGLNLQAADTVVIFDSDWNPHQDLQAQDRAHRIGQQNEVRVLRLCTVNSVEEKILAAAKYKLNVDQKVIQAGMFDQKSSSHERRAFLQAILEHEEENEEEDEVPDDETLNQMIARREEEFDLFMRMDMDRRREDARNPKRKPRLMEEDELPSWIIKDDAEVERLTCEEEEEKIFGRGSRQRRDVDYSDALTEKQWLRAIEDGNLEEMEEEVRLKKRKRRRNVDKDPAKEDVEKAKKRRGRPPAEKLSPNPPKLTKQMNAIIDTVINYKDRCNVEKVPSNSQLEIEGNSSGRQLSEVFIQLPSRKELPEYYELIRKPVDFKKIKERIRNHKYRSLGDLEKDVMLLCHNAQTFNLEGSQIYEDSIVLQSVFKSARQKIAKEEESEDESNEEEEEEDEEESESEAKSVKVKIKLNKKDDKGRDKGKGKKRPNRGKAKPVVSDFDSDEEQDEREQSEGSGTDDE
T2 sequence (P51532 whole entry, the tested form may be a part): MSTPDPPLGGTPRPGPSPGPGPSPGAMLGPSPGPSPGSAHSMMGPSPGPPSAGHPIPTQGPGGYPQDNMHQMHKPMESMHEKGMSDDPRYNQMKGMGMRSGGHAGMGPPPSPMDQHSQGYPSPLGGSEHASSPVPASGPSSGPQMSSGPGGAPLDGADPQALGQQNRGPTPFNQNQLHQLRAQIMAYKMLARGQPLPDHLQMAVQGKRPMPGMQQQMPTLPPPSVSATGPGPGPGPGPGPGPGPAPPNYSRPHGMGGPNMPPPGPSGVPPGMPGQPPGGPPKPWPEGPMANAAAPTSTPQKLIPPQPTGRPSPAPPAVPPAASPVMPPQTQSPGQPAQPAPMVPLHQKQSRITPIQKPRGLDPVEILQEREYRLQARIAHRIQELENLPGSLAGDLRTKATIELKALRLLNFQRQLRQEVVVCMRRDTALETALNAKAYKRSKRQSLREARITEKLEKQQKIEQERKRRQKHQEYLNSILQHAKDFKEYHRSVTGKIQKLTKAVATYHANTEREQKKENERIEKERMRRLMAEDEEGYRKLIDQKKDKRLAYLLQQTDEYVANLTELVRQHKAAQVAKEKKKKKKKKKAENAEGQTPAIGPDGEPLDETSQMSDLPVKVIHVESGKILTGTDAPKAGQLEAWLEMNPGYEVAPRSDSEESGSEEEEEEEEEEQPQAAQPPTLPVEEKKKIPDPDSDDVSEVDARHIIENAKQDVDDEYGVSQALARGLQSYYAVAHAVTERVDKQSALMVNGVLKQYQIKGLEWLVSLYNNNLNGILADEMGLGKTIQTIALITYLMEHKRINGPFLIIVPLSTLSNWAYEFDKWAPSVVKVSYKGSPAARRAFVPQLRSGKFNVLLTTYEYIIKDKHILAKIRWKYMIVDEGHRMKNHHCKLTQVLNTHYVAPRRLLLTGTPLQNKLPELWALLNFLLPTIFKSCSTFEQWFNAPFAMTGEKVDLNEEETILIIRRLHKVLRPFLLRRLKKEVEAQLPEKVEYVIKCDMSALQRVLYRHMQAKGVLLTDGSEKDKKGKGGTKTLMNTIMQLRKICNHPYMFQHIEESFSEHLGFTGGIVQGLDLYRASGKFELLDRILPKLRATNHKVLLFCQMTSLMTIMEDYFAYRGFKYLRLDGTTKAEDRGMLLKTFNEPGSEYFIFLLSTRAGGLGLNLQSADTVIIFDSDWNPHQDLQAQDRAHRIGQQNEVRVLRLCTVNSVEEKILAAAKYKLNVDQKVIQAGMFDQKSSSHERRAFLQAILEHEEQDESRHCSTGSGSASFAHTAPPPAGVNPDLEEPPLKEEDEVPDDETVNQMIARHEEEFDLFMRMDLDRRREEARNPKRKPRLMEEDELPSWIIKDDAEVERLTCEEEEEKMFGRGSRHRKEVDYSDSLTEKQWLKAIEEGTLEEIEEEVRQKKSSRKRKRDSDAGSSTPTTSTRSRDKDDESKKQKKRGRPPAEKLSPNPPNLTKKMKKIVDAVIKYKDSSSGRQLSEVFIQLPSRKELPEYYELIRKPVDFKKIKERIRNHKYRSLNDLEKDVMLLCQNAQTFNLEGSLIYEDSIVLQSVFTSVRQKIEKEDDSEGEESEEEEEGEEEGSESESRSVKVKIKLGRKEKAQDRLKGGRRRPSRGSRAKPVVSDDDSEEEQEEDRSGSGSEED

Take `Cc1ncsc1-c1ccc([C@H](C)NC(=O)[C@@H]2C[C@@H](O)CN2C(=O)[C@@H](c2cc(N3CCC(CN4CC(c5cc6cc(-c7ccccc7O)nnc6[nH]5)C4)CC3)no2)C(C)C)cc1` (racemic) [Compound 247, (2S,4R)-4-hydroxy-1-((R)-2-(3-(4-((3-(3-(2-hydroxyphenyl)-7H-pyrrolo[2,3-c]pyridazin-6-yl)azetidin-1-yl)methyl)piperidin-1-yl)isoxazol-5-yl)-3-methylbutanoyl)-N-((S)-1-(4-(4-methylthiazol-5-yl)phenyl)ethyl)pyrrolidine-2-carboxamide]: at HiBit-BRM fusion protein, the “BRM HiBit Degradation Maximum (%)” value is recorded as “A (“A” indicates maximum degradation ≥ 75%)” and the DC50 was > 0.01 µM. For the same molecule, in experiment [1], the Dmax is > 50% and the DC50 was > 1 µM.
In the same order, the values of `Cc1ncsc1-c1ccc([C@H](C)NC(=O)[C@@H]2C[C@@H](O)CN2C(=O)[C@@H](c2cc(OCCN3CC(COc4c[nH]c5nnc(-c6ccccc6O)cc45)C3)no2)C(C)C)cc1` (racemic) [Compound 185, (2S,4R)-4-hydroxy-1-[(2R)-2-(3-{2-[3-{{[3-(2-hydroxyphenyl)-7H-pyrrolo[2,3-c]pyridazin-5-yl]oxy}methyl)azetidin-1-yl]ethoxy}-1,2-oxazol-5-yl)-3-methylbutanoyl]-N-[(1S)-1-[4-(4-methyl-1,3-thiazol-5-yl)phenyl]ethyl]pyrrolidine-2-carboxamide] are “A (“A” indicates maximum degradation ≥ 75%)”, > 0.1 µM, > 75% and > 1 µM.
On to `Cc1ncsc1-c1ccc(CNC(=O)[C@@H]2C[C@@H](O)CN2C(=O)[C@@H](NC(=O)CCCCCCCCCCCCCCCC(=O)N2CC(c3cc4cc(-c5ccccc5O)nnc4[nH]3)C2)C(C)(C)C)cc1` [Compound 22, (2S,4R)-4-hydroxy-1-((S)-2-(17-(3-(3-(2-hydroxyphenyl)-7H-pyrrolo[2,3-c]pyridazin-6-yl)azetidin-1-yl)-17-oxoheptadecanamido)-3,3-dimethylbutanoyl)-N-(4-(4-methylthiazol-5-yl)benzyl)pyrrolidine-2-carboxamide], for which the “BRM HiBit Degradation Maximum (%)” value on HiBit-BRM fusion protein is recorded as “C (“C” indicates maximum degradation < 50%)”. The Dmax in experiment [1] is < 50%.
With `Cc1ncsc1-c1ccc([C@H](C)NC(=O)[C@@H]2C[C@@H](O)CN2C(=O)[C@@H](c2cc(N3C[C@@H]4C[C@H]3CN4C(=O)[C@H]3C[C@@]4(Cc5cc(-c6ccccc6O)nnc5N4)C3)no2)C(C)C)cc1` (racemic) [Compound 72, (2S,4R)-4-hydroxy-1-((R)-2-(3-((1S,4S)-5-((1S,3s)-3′-(2-hydroxyphenyl)-5′,7′-dihydrospiro[cyclobutane-1,6′-pyrrolo[2,3-c]pyridazine]-3-carbonyl)-2,5-diazabicyclo[2.2.1]heptan-2-yl)isoxazol-5-yl)-3-methylbutanoyl)-N-((S)-1-(4-(4-methylthiazol-5-yl)phenyl)ethyl)pyrrolidine-2-carboxamide], on HiBit-BRM fusion protein, the “BRM HiBit Degradation Maximum (%)” value was “B (“B” indicates maximum degradation ≥ 50%)” and the DC50 is > 1 µM. In addition, the Dmax in experiment [1] was < 50%.
In the case of `Cc1ncsc1-c1ccc([C@H](C)NC(=O)[C@@H]2C[C@@H](O)CN2C(=O)[C@H](c2cc(C3CCN(C(=O)[C@H]4CCc5[nH]c6nnc(-c7ccccc7O)cc6c5C4)CC3)no2)C(C)C)cc1` (single isomer, unassigned) [Compound 155], the “BRM HiBit Degradation Maximum (%)” value on HiBit-BRM fusion protein is “C (“C” indicates maximum degradation < 50%)”. Moreover, the Dmax in experiment [1] is < 50%.
As for `O=C1CCC(N2C(=O)c3ccc(NCCCCCCCCC(=O)N4CC(c5cc6cc(-c7ccccc7O)nnc6[nH]5)C4)cc3C2=O)C(=O)N1` (stereo not drawn) [Compound 9, 2-(2,6-dioxopiperidin-3-yl)-5-((9-(3-(3-(2-hydroxyphenyl)-7H-pyrrolo[2,3-c]pyridazin-6-yl)azetidin-1-yl)-9-oxononyl)amino) isoindoline-1,3-dione], on HiBit-BRM fusion protein, the “BRM HiBit Degradation Maximum (%)” value was “B (“B” indicates maximum degradation ≥ 50%)” and the DC50 is > 1 µM. The Dmax in experiment [1] was < 50%.
Take `Cc1ncsc1-c1ccc([C@H](C)NC(=O)[C@@H]2C[C@@H](O)CN2C(=O)[C@@H](c2cc(N3CCC(CN[C@@H]4CCc5[nH]c6nnc(-c7ccccc7O)cc6c5C4)CC3)no2)C(C)C)cc1` (single isomer, unassigned) [Compound 173]: on HiBit-BRM fusion protein, the “BRM HiBit Degradation Maximum (%)” value is given as “A (“A” indicates maximum degradation ≥ 75%)” and the DC50 is > 0.1 µM. Besides, in experiment [1], the Dmax is > 50% and the DC50 was > 1 µM.
As to `Cc1ncsc1-c1ccc(CNC(=O)[C@@H]2C[C@@H](O)CN2C(=O)[C@@H](NC(=O)CCCCCCCCCC(=O)N2CC(c3cc4cc(-c5ccccc5O)nnc4[nH]3)C2)C(C)(C)C)cc1` [Compound 5, (2S,4R)-4-hydroxy-1-((S)-2-(11-(3-(3-(2-hydroxyphenyl)-7H-pyrrolo[2,3-c]pyridazin-6-yl)azetidin-1-yl)-11-oxoundecanamido)-3,3-dimethylbutanoyl)-N-(4-(4-methylthiazol-5-yl)benzyl)pyrrolidine-2-carboxamide], at HiBit-BRM fusion protein, the “BRM HiBit Degradation Maximum (%)” value was “A (“A” indicates maximum degradation ≥ 75%)” and the DC50 was > 0.1 µM. In addition, the Dmax in experiment [1] is < 50%.
With `Cc1ncsc1-c1ccc(CNC(=O)[C@@H]2C[C@@H](O)CN2C(=O)[C@@H](NC(=O)CCCCCCC(=O)N2CC(c3c[nH]c4nnc(-c5ccccc5O)cc34)C2)C(C)(C)C)cc1` [Compound 45, (2S,4R)-4-hydroxy-1-((S)-2-(8-(3-(3-(2-hydroxyphenyl)-7H-pyrrolo[2,3-c]pyridazin-5-yl)azetidin-1-yl)-8-oxooctanamido)-3,3-dimethylbutanoyl)-N-(4-(4-methylthiazol-5-yl)benzyl)pyrrolidine-2-carboxamide], the “BRM HiBit Degradation Maximum (%)” value on HiBit-BRM fusion protein is given as “C (“C” indicates maximum degradation < 50%)”. Besides, in experiment [1], the Dmax is < 50%.
In the same order, the values of `Cc1ncsc1-c1ccc([C@H](C)NC(=O)[C@@H]2C[C@@H](O)CN2C(=O)[C@@H](c2cc(OCCN3CCc4[nH]c5nnc(-c6ccccc6O)cc5c4C3)no2)C(C)C)cc1` (racemic) [Compound 303, (2S,4R)-4-hydroxy-1-((R)-2-(3-(2-(3-(2-hydroxyphenyl)-5,7,8,9-tetrahydro-6H-pyrido[3′,4′:4,5]pyrrolo[2,3-c]pyridazin-6-yl)ethoxy)isoxazol-5-yl)-3-methylbutanoyl)-N-((S)-1-(4-(4-methylthiazol-5-yl)phenyl)ethyl)pyrrolidine-2-carboxamide] are “C (“C” indicates maximum degradation < 50%)” and < 50%.
In the same order, the values of `Cc1ncsc1-c1ccc([C@H](C)NC(=O)[C@@H]2C[C@@H](O)CN2C(=O)[C@@H](c2cc(N(C)CCN3CC4(Cc5cc(-c6ccccc6O)nnc5N4)C3)no2)C(C)C)cc1` (racemic) [Compound 87, (2S,4R)-4-hydroxy-1-((R)-2-(3-((2-(3′-(2-hydroxyphenyl)-5′,7′-dihydrospiro[azetidine-3,6′-pyrrolo[2,3-c]pyridazin]-1-yl)ethyl)(methyl)amino)isoxazol-5-yl)-3-methylbutanoyl)-N-((S)-1-(4-(4-methylthiazol-5-yl)phenyl)ethyl)pyrrolidine-2-carboxamide] are “C (“C” indicates maximum degradation < 50%)” and < 50%.
On to `Cc1ncsc1-c1ccc([C@H](C)NC(=O)[C@@H]2C[C@@H](O)CN2C(=O)[C@@H](c2cc(OCCN3CCC(c4[nH]c5nnc(-c6ccccc6O)cc5c4C)CC3)no2)C(C)C)cc1` (racemic) [Compound 270, (2S,4R)-4-hydroxy-1-[(2R)-2-[3-(2-{4-[3-(2-hydroxyphenyl)-5-methyl-7H-pyrrolo[2,3-c]pyridazin-6-yl]piperidin-1-yl}ethoxy)-1,2-oxazol-5-yl]-3-methylbutanoyl]-N-[(1S)-1-[4-(4-methyl-1,3-thiazol-5-yl)phenyl]ethyl]pyrrolidine-2-carboxamide], for which, on HiBit-BRM fusion protein, the “BRM HiBit Degradation Maximum (%)” value was “A (“A” indicates maximum degradation ≥ 75%)” and the DC50 was < 0.01 µM. Also, in experiment [1], the Dmax was > 75% and the DC50 was > 0.01 µM.
In the same order, the values of `Cc1ncsc1-c1ccc([C@H](C)NC(=O)[C@@H]2C[C@@H](O)CN2C(=O)[C@@H](c2cc(OCCN3CC4(CC(c5cc6cc(-c7ccccc7O)nnc6[nH]5)C4)C3)no2)C(C)C)cc1` (racemic) [Compound 54, (2S,4R)-4-hydroxy-1-((R)-2-(3-(2-(6-(3-(2-hydroxyphenyl)-7H-pyrrolo[2,3-c]pyridazin-6-yl)-2-azaspiro[3.3]heptan-2-yl)ethoxy)isoxazol-5-yl)-3-methylbutanoyl)-N-((S)-1-(4-(4-methylthiazol-5-yl)phenyl)ethyl)pyrrolidine-2-carboxamide] are “A (“A” indicates maximum degradation ≥ 75%)”, > 0.01 µM, > 50% and > 0.1 µM.
For `Cc1ncsc1-c1ccc([C@H](C)NC(=O)[C@@H]2C[C@@H](O)CN2C(=O)[C@@H](c2cc(N3CCN(CCC(=O)N4CC(c5cc6cc(-c7ccccc7O)nnc6[nH]5)C4)CC3)no2)C(C)C)cc1` (racemic) [Compound 268, (2S,4R)-4-hydroxy-1-[(2R)-2-{3-[4-(3-{3-[3-(2-hydroxyphenyl)-7H-pyrrolo[2,3-c]pyridazin-6-yl]azetidin-1-yl}-3-oxopropyl)piperazin-1-yl]-1,2-oxazol-5-yl}-3-methylbutanoyl]-N-[(1S)-1-[4-(4-methyl-1,3-thiazol-5-yl)phenyl]ethyl]pyrrolidine-2-carboxamide], at HiBit-BRM fusion protein, the “BRM HiBit Degradation Maximum (%)” value is reported as “A (“A” indicates maximum degradation ≥ 75%)” and the DC50 is > 0.1 µM. For the same molecule, the DC50 in experiment [1] is > 1 µM.
